Assay results published in ChEMBL document CHEMBL3507680, “University of Dundee, Gates Library screen for HepG2 cell viability”.

Assay: Human HepG2 cell viability assay in 384 well format
Format: toxicity, cell-based
Parameters: dose 125 nL, time 70.5 hour; concentration not given beside the values
Conditions: HepG2 cells, read-out: Inhibition

Row | SMILES | cytotoxicity at 70.5 h
1 | O=C(c1cnc2ccc(F)cc2c1NCc1ccco1)N1CCCC1 | 28.7%
2 | CCCN(CCC)c1ncc(S(=O)(=O)c2ccccc2)c(N)n1 | -15.1%
3 | CCN(CC)c1ncc(S(=O)(=O)c2cccc(C)c2)c(N)n1 | 25.6%
4 | Cc1ccc(-c2cc(C(=O)O)sn2)cc1 | -15.1%
5 | Cc1c(C(=O)O)cnn1-c1ccc(-c2nc(C(C)(C)C)no2)cn1 | -8.45%
6 | Cc1cccc(Cn2c(=O)[nH]c3csnc3c2=O)c1 | -4.48%
7 | CCc1c(C)n(CCC#N)c2nc3ccccc3n2c1=O | -9.18%
8 | COc1ccc(-c2nnsc2C(=O)N2CCOCC2)cc1 | -11.2%
9 | CC1(C)CC(=O)c2cnc3nc(N4CCOCC4)nc(O)c3c2C1 | -1.04%
10 | COc1ccccc1C1CC(=O)Nc2c1c(=O)[nH]n2C1CCCC1 (stereo unspecified) | -11.5%
11 | CCOC(=O)CC(c1ccc(OC)c(OC)c1)c1c(O)n[nH]c1C (stereo unspecified) | -15.2%
12 | COc1ccccc1C1SCC(=O)Nc2c1c(=O)[nH]n2C1CCCCC1 (stereo unspecified) | 20.9%
13 | CC(C)(C)c1csc(CCNC(=O)C(c2ccccc2)n2cnnn2)n1 (stereo unspecified) | -0.915%
14 | COc1cccc(-n2nc(C(C)=O)c(C(C)=O)c2C)c1 | -15.4%
15 | Cc1cs/c(=N\C(=O)Cn2nc(N3CCC(C)CC3)ccc2=O)[nH]1 | -9.83%
16 | CNc1cncc(C2CCN(C(=O)c3coc(C)n3)CC2)n1 | 24.2%
17 | CCC1CNCc2cc3c(OC)ccc(OC)c3nc2O1 (stereo unspecified) | 12.3%
18 | Cc1cc(-c2ccc(=O)n(CCNC(=O)C3CC3)n2)c(C)o1 | 0.992%
19 | CN1CCN([C@@H]2CN(C(=O)c3cc4cccc(F)c4[nH]3)C[C@H]2O)CC1 | -1.94%
20 | COCC(=O)N1Cc2nc3c(C)c(-c4cccs4)nn3c(O)c2C1 | -0.72%
21 | COCCNC(=O)C(C)n1nc(-c2ccc(C)o2)cc(N)c1=O (stereo unspecified) | 39.4%
22 | Cc1cc2c(cc1Cl)C=CC1(CCN(CC(=O)N3CCOCC3)CC1)O2 | 25.7%
23 | COc1ccc(C(C)N(C)Cc2c(C(C)(C)C)[nH]c3ncccc23)cc1 (stereo unspecified) | 12.9%

Row | SMILES | cytotoxicity at 70.5 h
24 | CO[C@H]1CN(C(=O)c2cn3cc(C)ccc3n2)CC[C@@]12CCCO2 | -17.2%
25 | CNC(=O)CCc1cc(C2CCCN2S(C)(=O)=O)nc(C)n1 (stereo unspecified) | -12.2%
26 | c1ccc(CO[C@H]2CN(c3ncccn3)C[C@@]23CCCO3)cc1 | -11.5%
27 | CN1CCCC1c1ccc(N2CCOCC2)cn1 (stereo unspecified) | -16.8%
28 | CCN(CC)S(=O)(=O)N1CCCC1c1nnc2n1CCN(C)CC2 (stereo unspecified) | -10.9%
29 | CN1C[C@H](c2ccccc2)[C@H]2CN(C(=O)Cc3ccc(O)cc3)CC[C@H]21 | 22.7%
30 | Cc1ccc(-c2noc(C3CCN3C(=O)c3ccc(=O)[nH]n3)n2)s1 (stereo unspecified) | -4.22%
31 | Cc1ccc(-c2noc(C3CCN3C(=O)c3cc[nH]n3)n2)s1 (stereo unspecified) | -14.3%
32 | CC(=O)N[C@H]1CCO[C@@H](c2cccc(NC(=O)c3cccc(F)c3)c2)C1 | -8.41%
33 | CN(C)C(=O)CN1CCC(c2c(C(N)=O)sc3ncccc23)C1 (stereo unspecified) | -5.25%
34 | CN(C)S(=O)(=O)N1CCCC(c2nccnc2-c2cccc(Cl)c2)C1 (stereo unspecified) | -1.8%
35 | Cn1cccc1C(=O)NCc1ccnc(C2CCCOC2)n1 (stereo unspecified) | -4.4%
36 | O=C(CCc1ccc(Cl)cc1)N[C@@H]1CC[C@@H](O)[C@@H]1O | -6.03%
37 | c1ccc(C2Cn3ccnc3CN2Cc2ncc[nH]2)cc1 (stereo unspecified) | -1.58%
38 | Cc1cc(-c2cc3nc(C)c(C)c(NCC4COCCO4)n3n2)no1 (stereo unspecified) | -5.97%
39 | O=C(c1cccnc1)N1CCOC(Cc2ccccc2Cl)C1 (stereo unspecified) | 0.0235%
40 | Cn1ccc(C(=O)N2CCC(Cc3ccc4ncccc4c3)CC2)n1 | 14.8%
41 | OCCc1cc(C2CCCN2c2ncccn2)n[nH]1 (stereo unspecified) | -2.35%
42 | Cc1ccnc(C2COCCN2C)n1 (stereo unspecified) | -3.5%
43 | CN(C)C(=O)CN1CCCC(c2nccnc2-c2cccc(Cl)c2)C1 (stereo unspecified) | 1.03%
44 | CNC(=O)c1sc2ncccc2c1C1CCN(C(=O)CCOC)C1 (stereo unspecified) | -8.16%
45 | CC(C)(C)C(=O)N1CCCC1c1cc(CO)[nH]n1 (stereo unspecified) | -1.34%
46 | COc1ccc(C2CN(c3cc(C)ncn3)CCN2C(C)=O)cc1 (stereo unspecified) | -5.95%

Row | SMILES | cytotoxicity at 70.5 h
47 | CN1CCc2nc(C3CCCN(S(=O)(=O)c4ccccc4)C3)ncc2C1 (stereo unspecified) | -1.43%
48 | CC(NC(=O)C(C)(C)C)c1cc(O)nc(-c2cccnc2)n1 (stereo unspecified) | -5.99%
49 | CCc1c(C)nn2c(O)cc(C3CCN(C(=O)c4cnn(C)c4)C3)nc12 (stereo unspecified) | -0.531%
50 | Cc1cc(C(=O)N2CCN(c3ncc4c(n3)CCOC4)CC2)sc1C | 2.24%
51 | Cc1sc(Oc2ccccc2Cl)nc1C(=O)O | 7.28%
52 | CCCn1cc(CN2CCOCC2c2[nH]ncc2C)cn1 (stereo unspecified) | -2.99%
53 | CCOCC(=O)N1CCC(C)(c2nccs2)CC1 | 13.6%
54 | CN(C)Cc1cccc(-c2cccnc2C(=O)NCc2cn(C)cn2)c1 | -1.14%
55 | O=C(Cc1cccs1)NCc1ccnc(C2CCCOC2)n1 (stereo unspecified) | 3.29%
56 | Cc1cc(C)nc(N2CC[C@H](Oc3ccccc3F)[C@@H](O)CC2)n1 | -3.75%
57 | COCC(=O)N1CCc2nc(-c3cnccn3)nc(O)c2C1 | -8.12%
58 | Cc1ccc2[nH]c(=O)c(CNCCCN3CCOCC3)cc2c1 | -8.68%
59 | O=C(Cc1ccccn1)N1CCc2c(O)nc(-c3cnccn3)nc2C1 | -6.46%
60 | Cc1ccc2cc(CNCCCN3CCOCC3)c(=O)[nH]c2c1C | -8.68%
61 | CC(C)(C)C(=O)N1CCC(n2nc(-c3ccco3)ccc2=O)CC1 | -4.38%
62 | O=C1NCC2(CCCN(Cc3ccc(F)cc3)C2)Oc2ccccc21 (stereo unspecified) | -1.98%
63 | O=C(CCc1ccccc1)N1CCCC(c2n[nH]c3nccnc23)C1 (stereo unspecified) | -6.72%
64 | CSc1ccc(CN2CCCC3(CNC(=O)c4ccccc4O3)C2)cc1 (stereo unspecified) | 2.19%
65 | CCc1nc2ccccc2c(=O)n1CC1(O)CCN(C(=O)C(C)C)CC1 | -8.49%
66 | O=C(Cc1ccsc1)N1CCCC(c2n[nH]c3ncccc23)C1 (stereo unspecified) | -5.61%
67 | CS(=O)(=O)N1CCC(C(=O)NC(Cc2ccsc2)c2cccnc2)CC1 (stereo unspecified) | 23.2%
68 | Cc1nc(C2CCN(C(=O)c3cscn3)CC2)c2sccn12 | -1.33%
69 | Cc1cc(-c2cnn(CCNC(=O)c3cnn(C)c3)c2C2CC2)on1 | -2.33%

Row | SMILES | cytotoxicity at 70.5 h
70 | CCc1cccc2cc(CNCCCN3CCOCC3)c(=O)[nH]c12 | 0.0251%
71 | Cc1cccc(CN2CCC(c3nnsc3S(C)(=O)=O)CC2)n1 | -4.43%
72 | CS(=O)(=O)c1snnc1C1CCN(Cc2cccnc2)CC1 | 8.4%
73 | CNc1ncc(CN2CCC(c3nnsc3S(C)(=O)=O)CC2)cn1 | -7.26%
74 | Cc1ccc(C(=O)N2CCC[C@@H]2Cn2nnc3c(O)nc(C)nc32)cc1 | -2.37%
75 | Cc1cc(C)c2cc(CNC3CCCCC3)c3nn(C)c(=O)n3c2c1 | 5.59%
76 | Cc1cc(C)c2cc(CNCc3ccco3)c3nn(C)c(=O)n3c2c1 | 19.9%
77 | CCCn1ncc(CN2C[C@@H]3CCCN3C[C@@H]2Cc2ccccc2)c1C | -2.55%
78 | CCCN(C(=O)c1cccnc1)c1nc2c(s1)CCc1c-2cnn1C | 21%
79 | Cc1cc(-c2ccccc2C(=O)O)nc(C2CCCCN2C)n1 (stereo unspecified) | -6.42%
80 | Cc1cc(-c2cc(F)ccc2C(=O)O)nc(C2CCCN(C)C2)n1 (stereo unspecified) | 2.71%
81 | CC(C)N1CCC(Cc2cncc(-c3cc(F)ccc3C(=O)O)n2)C1 (stereo unspecified) | -6.34%
82 | CN(C)Cc1ccnc(C2CCCN2Cc2cccc(F)c2F)n1 (stereo unspecified) | -2.17%
83 | CN(C(=O)COc1ccc(F)cc1)[C@@H]1CC[C@@H](n2ccnc2)[C@@H]1O | -4.21%
84 | O=C(c1ccncc1)N1CC[C@@H](O)[C@@H](O)[C@H](N2CCC(F)(F)CC2)C1 | -0.846%
85 | Cc1cccc(CN2CCCC2c2cccc(CCC(=O)O)n2)c1 (stereo unspecified) | 15.7%
86 | O[C@@H]1CN(Cc2ccncc2)C[C@H]1Oc1ccccc1 | -5.71%
87 | CNc1cccc(C2CCCN(C(=O)c3cncs3)C2)n1 (stereo unspecified) | -4.52%
88 | CNC(=O)c1cccc(C2CNCCN2C(=O)c2ccn(C)n2)c1 (stereo unspecified) | 0.974%
89 | CCc1cc(C(=O)N2CCCC2c2nc(O)cc(CC)n2)on1 (stereo unspecified) | -1.1%
90 | Cc1nc(Nc2ncccn2)cc(C2CCCN2Cc2ncc[nH]2)n1 (stereo unspecified) | -2.88%
91 | Cc1cncc(CN2C[C@@H](O)[C@H](Oc3ccccc3)C2)c1 | -0.379%
92 | Cc1ccc(S(=O)(=O)N2CCC(O)(CN(C)C)C2)cc1 (stereo unspecified) | -4.32%

Row | SMILES | cytotoxicity at 70.5 h
93 | NCc1cn(-c2ccccc2C(=O)NCc2ccccc2Cl)cn1 | -8.27%
94 | COc1ccccc1CNC(=O)c1ccccc1-n1cnc(CN)c1 | -9.04%
95 | CNC(=O)C1(c2cnccn2)CCCN1C(=O)c1cccnc1OC (stereo unspecified) | -9.36%
96 | Cc1nc(O)c2nnn(C[C@H]3CCCN3C(=O)c3ccccc3C)c2n1 | 11.5%
97 | C=Cn1ncc(CN2C[C@@H]3CCCN3C[C@@H]2CCSC)c1C | -6.32%
98 | CN(C)CC1(O)CCN(S(=O)(=O)c2cccc(F)c2)C1 (stereo unspecified) | -4.11%
99 | CNc1cccc(C2CCCN(C(=O)Cc3ccccc3)C2)n1 (stereo unspecified) | -7.78%
100 | CCC(=O)N1C[C@@H](C(=O)NC)[C@H](c2ccnc(N3CCCC3)n2)C1 | -3.94%
101 | CN(CCc1ccccc1)Cc1c(C2CCNCC2)[nH]c2ncccc12 | -6.11%
102 | CCc1onc(C)c1C(=O)N1CCN(c2ncc3c(n2)CCOC3)CC1 | -1.33%
103 | Cc1nc(O)cc(C2(C)CCCNC2)n1 (stereo unspecified) | -3.13%
104 | Cn1nc(C2CCCN(Cc3ccc(F)c(F)c3)C2)c2nccnc21 (stereo unspecified) | 27.1%
105 | COc1cccc(CN2CCCC(c3nn(C)c4nccnc34)C2)c1 (stereo unspecified) | 14.8%
106 | Cn1nc(C2CCN(C(=O)Cc3ccsc3)CC2)c2cccnc21 | -7.5%
107 | Cn1nc(C2CCN(C(=O)CCN3CCOCC3)CC2)c2cccnc21 | -2.43%
108 | CCc1nc2ccccc2c(=O)n1CC1(O)CCN(C(=O)COC)CC1 | -2.82%
109 | OC[C@H]1CC[C@]2(CC1)CN(Cc1ccsc1)Cc1ccccc1O2 | 7.87%
110 | CCN(CC)S(=O)(=O)N1CCc2nc(C3CCNCC3)ncc2C1 | -4.41%
111 | COc1cc(CN(CCCN(C)C)Cc2ccccn2)cc2c1OCO2 | 0.223%
